Measurements as given in ChEMBL document CHEMBL1137124, “Lysine sulfonamides as novel HIV-protease inhibitors: Nepsilon-disubstituted ureas” (Bioorg Med Chem Lett, 2004).

What was measured:
[1] = target: Human immunodeficiency virus type 1 protease (Human immunodeficiency virus 1, UniProt Q72874); assay: Inhibition constant for HIV aspartyl protease
[2] = system: Human immunodeficiency virus; assay: Effective concentration against wild type HIV virus was determined in anti-viral assay; type: functional, organism-based; conditions: Human immunodeficiency virus 1
[3] = system: Human immunodeficiency virus; assay: Effective concentration against wild type virus HIV virus was determined in anti-viral assay; type: functional, organism-based; conditions: Human immunodeficiency virus 1

SMILES | Ki [1] [nM] | EC50 [2] [nM] | EC50 [3] [nM]
Cc1ccc(S(=O)(=O)N(CC(C)C)[C@@H](CCCCNC(=O)N(Cc2ccccc2)Cc2ccccc2)C(=O)O)cc1 | 7.2 | – | –
CC(C)CN([C@H](CO)CCCCNC(=O)N(Cc1ccccc1)Cc1cccc2c1OCO2)S(=O)(=O)c1ccc(N)cc1 | 5.4 | > 10000 | –
COc1cccc(CN(Cc2ccc3c(c2)OCO3)C(=S)NCCCC[C@@H](CO)N(CCC(C)C)S(=O)(=O)c2ccc(N)cc2)c1 | 2.6 | – | –
CC(C)CCN([C@H](CO)CCCCNC(=O)N(Cc1ccc(C(F)(F)F)cc1)Cc1ccc2c(c1)OCO2)S(=O)(=O)c1ccc(N)cc1 | 3 | – | > 10000
Cc1ccc(S(=O)(=O)N(CC(C)C)[C@@H](CCCCNC(=O)NCc2ccccn2)C(=O)O)cc1 | > 300 | – | –
CC(C)CN([C@H](CO)CCCCNC(=O)N(Cc1ccc2c(c1)OCO2)Cc1cccs1)S(=O)(=O)c1ccc(N)cc1 | 2 | 4000 | –
CC(C)CN([C@H](CO)CCCCNC(=O)N(Cc1ccc([N+](=O)[O-])cc1)Cc1ccc2c(c1)OCO2)S(=O)(=O)c1ccc(N)cc1 | 2 | 620 | –
Cc1ccc(S(=O)(=O)N(CC(C)C)[C@@H](CCCCNC(=O)N(Cc2ccccc2)Cc2ccncc2)C(=O)O)cc1 | 3.7 | – | –
CC(C)CCN([C@H](CO)CCCCNC(=O)N(Cc1ccccc1)Cc1cccc2c1OCO2)S(=O)(=O)c1ccc(N)cc1 | 4 | – | > 10000
CC(C)CN([C@H](CO)CCCCNC(=O)N(Cc1ccccc1)Cc1ccc2c(c1)OCO2)S(=O)(=O)c1ccc(N)cc1 | 2.6 | 1400 | –
CC(C)CCN([C@H](CO)CCCCNC(=O)N(Cc1ccccc1)Cc1ccc2c(c1)OCO2)S(=O)(=O)c1ccc(N)cc1 | 4.1 | – | 871
CC(C)CN([C@H](CO)CCCCNC(=O)N(Cc1ccc(F)cc1)Cc1ccc2c(c1)OCO2)S(=O)(=O)c1ccc(N)cc1 | 2 | 488 | –
CC(C)CN([C@H](CO)CCCCNC(=O)N(Cc1ccccc1)Cc1ccc(F)cc1)S(=O)(=O)c1ccc(N)cc1 | 3.3 | > 10000 | –
CC(C)CN([C@H](CO)CCCCNC(=O)N(Cc1ccc2c(c1)OCO2)Cc1ccc2c(c1)OCO2)S(=O)(=O)c1ccc(N)cc1 | 1.7 | 150 | –
COc1ccc(CN(Cc2ccc3c(c2)OCO3)C(=S)NCCCC[C@@H](CO)N(CCC(C)C)S(=O)(=O)c2ccc(N)cc2)cc1OC | 2.9 | – | –
COc1ccc(CN(Cc2ccc3c(c2)OCO3)C(=O)NCCCC[C@@H](CO)N(CC(C)C)S(=O)(=O)c2ccc(N)cc2)cc1 | 2.2 | 500 | –
COc1ccc(CN(Cc2ccc3c(c2)OCO3)C(=O)NCCCC[C@@H](CO)N(CCC(C)C)S(=O)(=O)c2ccc(N)cc2)cc1 | 2.9 | – | 700
CC(C)CCN([C@H](CO)CCCCNC(=O)N(Cc1ccc2c(c1)OCO2)Cc1cccs1)S(=O)(=O)c1ccc(N)cc1 | 1.4 | – | 800
COc1ccc(CN(Cc2ccc3c(c2)OCO3)C(=S)NCCCC[C@@H](CO)N(CCC(C)C)S(=O)(=O)c2ccc(N)cc2)cc1 | 3.6 | – | –

SMILES | Ki [1] [nM] | EC50 [2] [nM] | EC50 [3] [nM]
CC(C)CCN([C@H](CO)CCCCNC(=O)N(Cc1ccc(F)cc1)Cc1ccc2c(c1)OCO2)S(=O)(=O)c1ccc(N)cc1 | 4.9 | – | 1200
CC(C)CN([C@H](CO)CCCCNC(=O)N(Cc1ccccc1)Cc1ccccc1)S(=O)(=O)c1ccc(N)cc1 | 12 | 3000 | –
Cc1ccc(S(=O)(=O)N(CC(C)C)[C@@H](CCCCNC(=O)N(Cc2ccccc2)C(C)C)C(=O)O)cc1 | 19 | – | –
Cc1ccc(S(=O)(=O)N(CC(C)C)[C@@H](CCCCNC(=O)N(C(C)C)C(C)C)C(=O)O)cc1 | 300 | – | –
CC(C)CN([C@H](CO)CCCCNC(=O)N(Cc1ccccc1)Cc1cccnc1)S(=O)(=O)c1ccc(N)cc1 | 34 | 8500 | –
CC(C)CCN([C@H](CO)CCCCNC(=O)N(Cc1ccc([N+](=O)[O-])cc1)Cc1ccc2c(c1)OCO2)S(=O)(=O)c1ccc(N)cc1 | 2.2 | – | 845
CC(C)CCN([C@H](CO)CCCCNC(=S)N(Cc1ccc(F)cc1)Cc1ccc2c(c1)OCCO2)S(=O)(=O)c1ccc(N)cc1 | 9.9 | – | –
CC(C)CN([C@H](CO)CCCCNC(=O)N(Cc1ccccc1)Cc1ccncc1)S(=O)(=O)c1ccc(N)cc1 | 90 | > 10000 | –
CC(C)CN([C@H](CO)CCCCNC(=O)N(Cc1ccccc1)Cc1ccc(F)cc1F)S(=O)(=O)c1ccc(N)cc1 | 12 | 3200 | –
Cc1ccc(S(=O)(=O)N(CC(C)C)[C@@H](CCCCNC(=O)N(CCc2ccccc2)Cc2ccccc2)C(=O)O)cc1 | > 300 | – | –
COc1ccc(CN(Cc2ccc3c(c2)OCO3)C(=O)NCCCC[C@@H](CO)N(CCC(C)C)S(=O)(=O)c2ccc(N)cc2)cc1OC | 3 | – | –
Cc1ccc(S(=O)(=O)N(CC(C)C)[C@H](CO)CCCCNC(=O)N(Cc2ccccc2)Cc2ccccc2)cc1 | 15 | – | –
CC(C)CN([C@H](CO)CCCCNC(=O)N(Cc1ccccc1)Cc1cccs1)S(=O)(=O)c1ccc(N)cc1 | 11 | 5000 | –
CC(C)CN([C@H](CO)CCCCNC(=O)N(Cc1ccsc1)Cc1ccc2c(c1)OCO2)S(=O)(=O)c1ccc(N)cc1 | 6.3 | 5000 | –
Cc1ccc(S(=O)(=O)N(CC(C)C)[C@@H](CCCCNC(=O)NCCc2ccccc2)C(=O)O)cc1 | 204 | – | –
CC(C)CN([C@H](CO)CCCCNC(=O)N(Cc1ccc(C(F)(F)F)cc1)Cc1ccc2c(c1)OCO2)S(=O)(=O)c1ccc(N)cc1 | 2.5 | 1600 | –
COc1cccc(CN(Cc2ccc3c(c2)OCO3)C(=O)NCCCC[C@@H](CO)N(CCC(C)C)S(=O)(=O)c2ccc(N)cc2)c1 | 2.2 | – | –
CC(C)CCN([C@H](CO)CCCCNC(=O)N(Cc1ccccc1)Cc1ccccc1)S(=O)(=O)c1ccc(N)cc1 | 5.8 | – | > 10000
CC(C)CCN([C@H](CO)CCCCNC(=O)N(Cc1ccc(F)cc1)Cc1ccc2c(c1)OCCO2)S(=O)(=O)c1ccc(N)cc1 | 5.4 | – | –
